Assay results from US20250154140A1 (Sunnybrook Research Institute, priority 2022, published 2025).

Legend:
[1] = target: T1, V83W L120W BAX (Homo sapiens, UniProt Q07812, L120W/V83W); test: ANTS/DPX liposome permeabilization with BAX mutant; type: biochemical; conditions: 100 nM V83W L120W BAX, 20 nM cBID, 20 uM compound
T1 construct: made in house
Experimental: For ANTS/DPX dye release assays: ANTS (fluorophore; excitation 355 nm, emission 520 nm) and DPX (collisional quencher) are encapsulated in reconstituted liposomes. When the membrane is permeabilized, ANTS and DPX diffuse to the outside of the liposomes, decreasing the effective concentration DPX and therefore quenching by […] is decreased and ANTS fluorescence increases. ANTS/DPX liposomes (8 uL of mg/mL liposome preparation per 100 μL of reaction) were added to individual wells of multi-well plates (100 μL final volume for 96 well plates or (30 μL total volume for 384 well plates) in assay buffer (10 mM HEPES pH 7.2, 200 mM KCl, and 5 mM MgCl2). The background fluorescence of the liposomes and the compound dissolved in DMSO was measured for 10 minutes to ensure fluorescent signal stabilized (F0). Unless explicitly stated, 20 nM cBID and 100 nM BAX were added sequentially to each well and mixed thoroughly. The fluorescence intensity of ANTS was measured every minute for 2-3 hours until the signal stabilizes at a plateau (F). […] The plate was then read a third time to assess the fluorescence of ANTS upon full dissociation of liposomes in each well (F100). The percentage of dye release from the liposomes due to the action of cBID and BAX is calculated as: […]

[2] = system: Baby Mouse Kidney (BMK) cells; test: Actinomycin D / spontaneous cell death assay in BMK cells; type: cell-based; conditions: for tolerability by the cells: BMKwt cells; for effect on spontaneous cell death / effect on actinomycin D induced cell death: BMKwt; for effect on spontaneous cell death: 0 mM actinomycin D; for effect on actinomycin D induced cell death: 3.125, 6.25, 12.5 nM actinomycin D
Experimental: Baby Mouse Kidney (BMK) cells were from (Mathew et al., 2008). BMK double knockout, SMAC-mCherry, and BAX^−/− cell lines were generated in house as described (Niu et al., 2017). BMK lines were grown in DMEM supplemented with 10% Fetal Bovine Serum and 1×MEM non-essential amino acids in a humidified incubator at 37° C. and 5% CO2.
For cell death assays with actinomycin D, 3000 WT or DKO BMK cells were cultured in a 384 well plate and incubated overnight. The next morning, cells were treated with actinomycin D for 2 hours before the addition of BAX inhibitor. Actinomycin D and BAX inhibitor (where relevant) were then incubated for 24 hours before staining with Hoechst, AnnexinV-Alexa488, and TMRE for 30 minutes. Cells were imaged by confocal microscopy (Opera Phenix—PerkinElmer) and subsequently analyzed with Harmony (PerkinElmer) software. Cell death was scored by three criteria: the loss of TMRE signal, the appearance of AnnexinV-Alexa488 signal, and nuclear shrinkage visualized by Hoechst.

[3] = target: BAX (Homo sapiens, UniProt Q07812); test: 1H-15N HSQC NMR chemical shift perturbations with 15N-labelled BAX; type: binding; design: NMR experiments used full-length WT BAX at a concentration of 200 μM; made in house; host or cells: Escherichia coli BL21-AI (minimal media, 15N); conditions: 200 uM BAX
Experimental: All experiments were performed using an independent sample for each measurement and were DMSO matched to account for environment changes due to the solvent. ^15N-labeled BAX was prepared as described above in 50 mM potassium phosphate pH 6, 50 mM NaCl, and 10% D2O. Samples were mixed before loading 40 μL in a 1.7 mm sample tube. […] NMR experiments used full-length WT BAX at a concentration of 200 μM. Experiments were conducted on a 600 MHz Bruker Avance magnet at 25° C. Chemical shift perturbations (CSP) were calculated in CCPNMRv3 using an automated analysis, where all peaks were matched to their extrema and calculated using the equation: […]
In the CSP equation above, α denotes the relative weighting of chemical shift changes of the ^15N relative to ^1H nuclei. ΔδHX and ΔδNx are the observed changes of the proton and nitrogen chemical shifts for residue x, respectively. As a note, all amino acid positions on the HSQC were manually inspected to use the extrema of the nearest identified peak. The absence of a bar in the CSP graph indicates no chemical shift, the presence of a proline, or a missing residue peak not used for analysis. Significance threshold was calculated as the average of chemical shifts across all residues plus the standard deviation. […]

[4] = system: diverse panel of 58 kinases; test: Kinase panel (Eurofins KinaseProfiler); type: biochemical; conditions: 1 uM
Experimental: For the kinase panel, % inhibition was measured using standardized assay conditions at the KinaseProfiler service (Eurofins Pharma Discovery Services). Compounds were sent for testing as dry powder.

BAX, sequence (Q07812 whole entry): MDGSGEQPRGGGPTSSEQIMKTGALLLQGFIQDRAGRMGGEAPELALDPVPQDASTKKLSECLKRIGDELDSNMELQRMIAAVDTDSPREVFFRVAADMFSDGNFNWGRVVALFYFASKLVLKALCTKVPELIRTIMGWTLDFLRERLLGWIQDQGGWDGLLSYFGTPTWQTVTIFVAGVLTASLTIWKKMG
T1 sequence (Q07812 whole entry V83W/L120W): as the sequence (Q07812 whole entry) above, with V83W, L120W counted along it

| SMILES | inhibition of mutant BAX [1] | spontaneous cell death in culture ([2]; BMK-wt, 0 nM actinomycin D, from ~30% without compound) [%] | tolerability by the cells [2] | effect on spontaneous cell death [2] | effect on actinomycin D induced cell death [2] | binding to BAX (chemical shift perturbations) [3] | inhibition of actinomycin D mediated cell death in cells expressing either BAX or BAK ([2]; 1.25 or 2.5 uM compound, actinomycin D 25 nM (wild-type), 100 nM (knock-out)) | activity across kinase panel (percent kinase inhibition) [4] |
| --- | --- | --- | --- | --- | --- | --- | --- | --- |
| COc1cc2ncnc(Nc3ccc(F)c(Cl)c3)c2cc1NC(=O)/C=C/CN1CCCCC1 [Dacomitinib, reference compound] | reduced inhibition | < 10 | well-tolerated | reduced the amount of spontaneous cell death | reduced cell death | – | – | – |
| COc1cc2ccnc(Nc3ccc(F)c(Cl)c3)c2cc1NC(=O)CCCN1CCCCC1 [Compound I-1, N-(1-((3-chloro-4-fluorophenyl)amino)-6-methoxyisoquinolin-7-yl)-4-(piperidin-1-yl)butanamide] | – | – | well-tolerated | reduced the amount of spontaneous cell death | reduced cell death | bind the cytosolic conformation of BAX | most effective inhibitor | minimal activity |
